According to PubChem BioAssay (NCI):
Several values for one entry are separate records, joined by “and”; a condition that tells them apart may be missing. Equal entries are not always repeated.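 All cell lines were grown in 96-well plates and treated with compound for 48 hours. GI50 = concentration required for 50% inhibition of growth. Definition used: TGI = concentration required for complete inhibition of growth.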

Key:
Test in all cases: growth of human tumour cells (NCI), 48 h
ACHN renal = system: ACHN renal
CCRF-CEM leukemia = system: CCRF-CEM leukemia
M14 melanoma = system: M14 melanoma
MCF7 breast = system: MCF7 breast
OVCAR-5 ovarian = system: OVCAR-5 ovarian
OVCAR-8 ovarian = system: OVCAR-8 ovarian
PC-3 prostate = system: PC-3 prostate
SF-539 CNS = system: SF-539 CNS
SW-620 colon = system: SW-620 colon
UACC-257 melanoma = system: UACC-257 melanoma

Structure (SMILES) | GI50 (ACHN renal) | TGI (ACHN renal) | GI50 (CCRF-CEM leukemia) | TGI (CCRF-CEM leukemia) | GI50 (M14 melanoma) | TGI (M14 melanoma) | GI50 (MCF7 breast) | TGI (MCF7 breast) | GI50 (OVCAR-5 ovarian) | TGI (OVCAR-5 ovarian) | GI50 (OVCAR-8 ovarian) | TGI (OVCAR-8 ovarian) | GI50 (PC-3 prostate) | TGI (PC-3 prostate) | GI50 (SF-539 CNS) | TGI (SF-539 CNS) | GI50 (SW-620 colon) | TGI (SW-620 colon) | GI50 (UACC-257 melanoma) | TGI (UACC-257 melanoma)
CC(C)(C)OC(=O)N1CC(Cn2cc(C(F)(F)F)c3c(Cl)ncnc32)C1 | 15 µM | 31.9 µM | 3.05 µM | 9.19 µM | 1.72 µM | 3.38 µM | 2.13 µM | 6.15 µM | 20.5 µM | 57.5 µM | 1.84 µM | 3.58 µM | 1.76 µM | 3.5 µM | 11.3 µM | 24.6 µM | 3.3 µM | 10.6 µM | 2.2 µM | 5.43 µM
COc1cc(-c2cc(-c3nc4cc(Cl)c(Cl)cc4[nH]3)[nH]n2)cc(OC)c1OC | 3.54 µM | 12.8 µM | 2.35 µM | 6.75 µM | 3.57 µM | 13.3 µM | 2.79 µM | 11.5 µM | 7.08 µM | 21.6 µM | 2.51 µM | 7.48 µM | 2.2 µM | 7.89 µM | 3.28 µM | 13.4 µM | 4.47 µM | 19.1 µM | 3.77 µM | 14.3 µM
O=c1c2[nH]c3ccccc3c2nc2n1CCS2 | 65.2 µM | > 100 µM | 0.598 µM | > 100 µM | > 100 µM | > 100 µM | > 100 µM | > 100 µM | > 100 µM | > 100 µM | > 100 µM | > 100 µM | 47.8 µM | > 100 µM | 85 µM | > 100 µM | > 100 µM | > 100 µM | > 100 µM | > 100 µM
[C-]#[O+].[C-]#[O+].[Ir].[O-]c1ccc2ccccc2c1N=Nc1ccccc1 |  | 13.8 µM |  | 7.42 µM |  | 13.2 µM |  | 21 µM |  | 38.3 µM | 13.6 µM | 38.7 µM |  | 54 µM |  | 50.4 µM |  | 5.37 µM |  | 14.4 µM
C[C@@H]1[C@H]2[C@H](C=C3[C@@H]4CC[C@H]5Cc6nc7c(nc6C[C@]5(C)[C@H]4C[C@@H](O)[C@@]32C)C[C@@H]2CC[C@H]3C4=C[C@@H]5O[C@@]6(CC[C@](C)(CO)O6)[C@@H](C)[C@@]5(O)[C@@]4(C)[C@H](O)C[C@@H]3[C@@]2(C)C7)O[C@]12CCC(C)(C)O2 | 0.843 µM | > 100 µM | 0.317 µM |  | 1.22 µM | 10.5 µM | 0.49 µM | 15.3 µM | 1.22 µM | 19.6 µM | 10.1 µM | > 100 µM | 0.391 µM | 6.76 µM | 0.114 µM | 4.08 µM | 0.711 µM | 7.92 µM | 13.9 µM | 99.2 µM
O=C1c2ccccc2C(=O)c2c(NC(=O)C(Cl)CCl)cccc21 (stereo unspecified) |  | 29 µM |  | 2.38 µM |  | 20.9 µM |  | 2.47 µM |  | 34.1 µM |  | > 39.1 µM |  | 24.3 µM |  | 11.5 µM |  | 14.7 µM |  | 36.5 µM
COc1cc2cn3c4ccc(O)cc4nc(N)c3c2cc1OC | 0.191 µM | 2.77 µM | 0.181 µM | 7.58 µM | 0.167 µM | 8.33 µM | 0.174 µM | 4.15 µM | 2.6 µM | 14.1 µM | 0.773 µM | 12.6 µM | 0.474 µM | 14.7 µM | 0.2 µM | 2.39 µM | 0.119 µM | 16 µM | 1.39 µM | 6.94 µM
COc1ccc2c(c1)C(=O)c1c-2c(OCCN(C)C)nc2cc(OC)ccc12 | 0.532 µM | 1.9 µM | 0.536 µM | 2.85 µM | 1.51 µM | 3.05 µM | 0.348 µM | 1.6 µM | 1.9 µM | 4.65 µM | 0.957 µM | 5.35 µM | 1.24 µM | 3.69 µM | 1.61 µM | 3.32 µM | 0.446 µM | 1.73 µM | 3.19 µM | 9.96 µM
NC(=O)c1ccc2nc(-c3ccc(C4(N)CCC4)cc3)c(-c3ccccc3)n2n1 | 5.97 µM | 20.8 µM | 1.41 µM | 44.4 µM | 14.3 µM | 28.6 µM | 0.158 µM | 17.5 µM | 12.5 µM | 47 µM | 17.4 µM | 39.3 µM | 0.183 µM | 20.1 µM | 2.13 µM | 13.7 µM | 15 µM | 31.3 µM | 13.2 µM | 29.7 µM
S=c1nc[nH]c2nc[nH]c12 | 4.88 µM | > 737 µM | 0.972 µM | > 100 µM and 310 µM | 0.418 µM and 3.92 µM |  |  | > 100 µM and 512 µM and > 413 µM | 5.75 µM and > 32.3 µM | > 100 µM and 651 µM and > 750 µM | 3.74 µM and 35.5 µM | > 100 µM and 739 µM and > 532 µM | 7.96 µM and 18.7 µM | > 750 µM | 3.02 µM | > 100 µM and 587 µM and 255 µM | 3.97 µM and 15.1 µM | > 100 µM and 692 µM and > 750 µM | > 100 µM and 43.7 µM | > 750 µM
COc1cc(/C=C/C(=O)NC[C@]2(O)CCC3C4CCc5cc(O)ccc5C4CCC32C)ccc1O (stereo partly specified) | 9.05 µM | > 100 µM | 3.18 µM | 86.1 µM | 4.99 µM | 37.6 µM | 13.4 µM | > 100 µM | 56.9 µM | > 100 µM | 23.8 µM | > 100 µM | 5.2 µM | > 100 µM | 16.1 µM | > 100 µM | 34.1 µM | > 100 µM | 39.5 µM | > 100 µM
COc1ccc2[nH]c3c(C)c4cc[n+](C)cc4c(C)c3c2c1 | 4.04 µM | > 85.3 µM | 0.706 µM and 1.92 µM |  | 16.1 µM and 12.9 µM and 2.33 µM | 85.3 µM and 29.8 µM | 1.51 µM and 0.885 µM |  | 2.32 µM and 3.07 µM |  | 0.0892 µM and 0.134 µM |  |  | 99.3 µM and > 250 µM |  | 1.65 µM and 1.46 µM and 1.32 µM | 0.28 µM |  | 6.27 µM and 5.41 µM | 54.5 µM [middle of 4 runs]
COc1nc2c(cc1S(=O)(=O)c1ccccc1)CCc1c-2cnn1Cc1ccccc1 | 42.6 µM | > 100 µM | 16.8 µM | > 100 µM | > 100 µM | > 100 µM | 3.48 µM | 38.9 µM | > 100 µM | > 100 µM | 34.5 µM | > 100 µM | 4.23 µM | > 100 µM | 17 µM | > 100 µM | > 100 µM | > 100 µM | 59.7 µM | > 100 µM
O=C(Nc1ccc(Cl)cc1F)c1cc(F)ccc1O | 0.83 µM | 8.27 µM | 3.16 µM | > 100 µM | 1.11 µM | 5.44 µM | 1.77 µM | 9.28 µM | 3.26 µM | 23 µM | 2.4 µM | > 70.8 µM | 1.49 µM | 6.73 µM | 0.845 µM | 7.58 µM | 1.46 µM | 23.6 µM | 0.853 µM | 7.2 µM
CC(C)[C@](O)(C(=O)OCC1=CC[N+]2([O-])CC[C@@H](O)[C@@H]12)[C@H](C)O (stereo partly specified) |  | > 10000 µM |  | > 10000 µM |  | > 10000 µM |  | > 10000 µM |  | > 10000 µM |  | > 7940 µM |  | > 10000 µM |  | > 10000 µM |  | > 10000 µM |  | > 10000 µM
COc1ccc2[nH]c(-c3ccccc3)c(C=C(C#N)C#N)c2c1 | 7.41 µM | > 100 µM | 3.42 µM | > 100 µM | 2.29 µM | 44.5 µM | 2.16 µM | > 100 µM | 44.2 µM | > 100 µM | 7.71 µM | > 100 µM | 5.37 µM | > 100 µM | 2.94 µM | 22 µM | 3.62 µM | > 100 µM | 30 µM | > 100 µM
C=CC(=O)NCCOc1cccc(Nc2cc(NCCCNC(=O)C3CCC3)c(Br)cn2)c1 | 0.75 µM | > 25 µM | 1.04 µM | > 25 µM | 1.79 µM | 7.86 µM | 0.781 µM | 10.3 µM | 1.84 µM | 10.5 µM | 1.82 µM | > 25 µM | 1.3 µM | 11 µM | 0.568 µM | 2.21 µM | 0.904 µM | 6.53 µM | 3.34 µM | > 25 µM
Cc1cc(Nc2cc(CN3CCOCC3)c3nc(C)c(Cc4ccc(Cl)cc4F)n3n2)n[nH]1 | 1.63 µM | 10.9 µM | 0.59 µM | 3.94 µM | 1.83 µM | 14.2 µM | 0.644 µM | 12.9 µM | 1.8 µM | 7.03 µM | 2.79 µM | 17.2 µM | 2.07 µM | 18.3 µM | 1.36 µM | 3.26 µM | 1.07 µM | 14.3 µM | 3.35 µM | 16.2 µM
O=S(=O)(CC#CCCCOCC#Cc1ccccc1C#CCS(=O)(=O)c1ccccc1)c1ccccc1 | 24.3 µM | 55 µM | 3.23 µM | 10.2 µM | 25.2 µM | 56.5 µM | 16.3 µM | 35.3 µM | 24.8 µM | 55.3 µM | 16.1 µM | 42 µM | 20.4 µM | 65.3 µM | 22.9 µM | 45.3 µM | 28.6 µM | > 100 µM | 14.9 µM | 38.9 µM
